Measured values reported in PubChem BioAssay AID1195 (EPA DSSTox, 2008).

Tested on: human maximum recommended daily dose, FDA database
Test: DSSTox (FDAMDD) FDA Maximum (Recommended) Daily Dose Database
Conditions: active compounds read low
Excerpt: The Food and Drug Administration (FDA) Center for Drug Evaluation and Research, Office of Pharmaceutical Science, Informatics and Computational Safety Analysis Staff's Maximum Recommended Daily Dose (FDAMDD) database contains values for over 1200 pharmaceuticals listed in Martindale: The Extra Pharmacopoeia (1973, 1983, and 1993) and The Physicians' Desk Reference (1995 and 1999). Some classes of chemicals were excluded from the FDAMDD database due to their unsuitability for most QSAR modeling programs. These were inorganic chemicals, high molecular weight polymers (>5000 Daltons), fibers, salts, mixtures of organic chemicals, and small molecules (<100 Daltons). FDAMDD is the non-proprietary portion of the database that was used in the QSAR analysis reported in the Main Citation. DSSTox FDAMDD has fewer substance records than the original MRDD Source database due to consolidation of partial structures (i.e., complexed entities) into a single record and elimination of duplicate entries. DSSTox FDAMDD also differs from the MRDD Source database in presenting complete structural information pertaining to the actual salt or complexed form corresponding to the listed ChemicalName and CASRN. According to the Source authors, there are a number of cases where multiple related forms or derivatives of a drug were listed as separate records but were assumed to fall under the same clinical toxicity assessment and, therefore, assigned the same Dose_MRDD_mg activity value. For the DSSTox FDAMDD, we have labeled these derivatives in the ChemClass_MRDD_grouping field and provide their counts in the ChemicalReplicateCount field to highlight their special nature.
Maximum recommended daily dose (or maximum recommended therapeutic dose) values were determined from pharmaceutical clinical trials that employed an oral route of exposure and daily treatments, usually for 3-12 months. Drugs were given as single or divided dose treatment regimens to achieve desired pharmacological effects. Roughly 5% of the pharmaceuticals in the FDAMDD data file were antineoplastics and anesthetics and were administered intravenously and/or intramuscularly. When separate MRDDs were reported for different routes of exposure, only the oral MRDD was included in the data file and only MRDD values reported for the average adult patient were used. Pharmaceuticals that are administered orally are usually tested over a limited range of doses and have MRDDs reported as mg/day. The mg/day unit was converted to mg/kg-body weight (bw)/day based upon an average adult weighing 60 kg. In contrast, the dose unit for most antineoplastic drug MRDDs is reported as mg/m2 which was converted to mg/kg-bw/day using the formula mg/kg-bw/day = mg/m2/37 for an average adult. Additionally, a few drugs had MRDDs reported in parts per million (ppm) which were converted to mg/kg-bw/day on the basis that 1000 ppm equals 25 mg/kg-bw/day for an average 60 kg adult. Activity Score is mapping of LOG10(1/Dose_MRDD_mmol) spanning activity range [MIN, MAX] onto Integer 1-100 Activity range, where 100 is highest potency and 1 is lowest potency: ActivityScore = 100 * INTEGER[(LOGINV_MRDD_mmol - MIN)/(MAX […] MIN)]. Activity Outcome is "active" for all substances, since Dose_MRDD_mmol is reported for all substances.

[1] = TherapeuticCategory: anxiolytic
[2] = TherapeuticCategory: antibacterial
[3] = TherapeuticCategory: anti inflammatory
[4] = TherapeuticCategory: antihypertensive
[5] = TherapeuticCategory: sedative, hypnotic
[6] = TherapeuticCategory: antiarrhythmic

Cn1c(=O)c2c(ncn2CCOC(=O)C(C)(C)Oc2ccc(Cl)cc2)n(C)c1=O
maximum recommended daily dose (mmol/kg-bw/day) (TherapeuticCategory: bronchodilator): 0.0297

CC(=O)O[C@]1(C(C)=O)CC[C@H]2[C@@H]3C=C(Cl)C4=CC(=O)[C@@H]5C[C@@H]5[C@]4(C)[C@H]3CC[C@@]21C
maximum recommended daily dose (mmol/kg-bw/day) (TherapeuticCategory: antiandrogen): 0.012

CC(C)(C)NCC(O)CSc1nc(-c2ccc(C(N)=O)s2)cs1 (stereo not drawn)
maximum recommended daily dose (mmol/kg-bw/day) (TherapeuticCategory: antihypertensive, antianginal, antiarrhythmic): 0.000896

O=C1Nc2ccc(Cl)cc2C(c2ccccc2Cl)=NC1O (stereo not drawn)
maximum recommended daily dose (mmol/kg-bw/day) [1]: 0.00052

CCCC(=O)O[C@H]1[C@H](C)O[C@@H](O[C@H]2[C@H](N(C)C)[C@@H](O)[C@H](O[C@H]3[C@@H](CC=O)C[C@@H](C)[C@@H](O)/C=C/C=C/C[C@@H](C)OC(=O)C[C@@H](O)[C@@H]3OC)O[C@@H]2C)C[C@@]1(C)OC(=O)CC
maximum recommended daily dose (mmol/kg-bw/day) [2]: 0.0242

CCCCC(CC)COC(=O)CC(C(=O)OCC(CC)CCCC)S(=O)(=O)O (stereo not drawn)
maximum recommended daily dose (mmol/kg-bw/day) (TherapeuticCategory: stool softener): 0.0109

CCN(CCO)CCCC(C)Nc1ccnc2cc(Cl)ccc12 (stereo not drawn)
maximum recommended daily dose (mmol/kg-bw/day) (TherapeuticCategory: antimalarial, antirheumatic, lupus erythematosus suppressant): 0.0298

O=P(O)(O)OC(CO)CO
maximum recommended daily dose (mmol/kg-bw/day) (TherapeuticCategory: none): 0.388

COc1cc(N)c(Cl)cc1C(=O)NC1CCN(Cc2ccccc2)CC1
maximum recommended daily dose (mmol/kg-bw/day) (TherapeuticCategory: antiemetic, antispasmodic): 6.69e-05

O=C(O)c1cccnc1Nc1cccc(C(F)(F)F)c1
maximum recommended daily dose (mmol/kg-bw/day) [3]: 0.0443

CC[C@H](C)[C@H]1O[C@]2(CC[C@@H]1C)C[C@@H]1C[C@@H](C/C=C(\C)[C@@H](O[C@H]3C[C@H](OC)[C@@H](O[C@H]4C[C@H](OC)[C@@H](O)[C@H](C)O4)[C@H](C)O3)[C@@H](C)/C=C/C=C3\CO[C@@H]4[C@H](O)C(C)=C[C@@H](C(=O)O1)[C@]34O)O2
maximum recommended daily dose (mmol/kg-bw/day) (TherapeuticCategory: anthelmintic): 0.000171

CC[N+](C)(C)c1cccc(O)c1
maximum recommended daily dose (mmol/kg-bw/day) (TherapeuticCategory: cholinergic): 0.00347

CN1CCN(C2=Nc3ccccc3Oc3ccc(Cl)cc32)CC1
maximum recommended daily dose (mmol/kg-bw/day) [1]: 0.0127

CCCCC1C(=O)N(c2ccccc2)N(c2ccccc2)C1=O
maximum recommended daily dose (mmol/kg-bw/day) [3]: 0.0324

O=C(O)C1CCc2cc(C3CCCCC3)c(Cl)cc21 (stereo not drawn)
maximum recommended daily dose (mmol/kg-bw/day) (TherapeuticCategory: anti inflammatory, antipyretic): 0.00269

CCOC(=O)CCC(=O)O[C@H]1[C@H](O[C@@H]2[C@@H](C)[C@H](O[C@H]3C[C@@](C)(OC)[C@@H](O)[C@H](C)O3)[C@@H](C)C(=O)O[C@H](CC)[C@@](C)(O)[C@H](O)[C@@H](C)C(=O)[C@H](C)C[C@@]2(C)O)O[C@H](C)C[C@@H]1N(C)C
maximum recommended daily dose (mmol/kg-bw/day) [2]: 0.0774

OC1(c2ccc(Cl)cc2)c2ccccc2C2=NCCN21 (stereo not drawn)
maximum recommended daily dose (mmol/kg-bw/day) (TherapeuticCategory: anorexic): 0.000117

CN(C)CCOC(C)(c1ccccc1)c1ccccn1 (stereo not drawn)
maximum recommended daily dose (mmol/kg-bw/day) (TherapeuticCategory: antihistaminic, hypnotic): 0.00154

C[C@]12CC[C@@H]3c4ccc(O)cc4CC[C@H]3[C@@H]1CC[C@@H]2O
maximum recommended daily dose (mmol/kg-bw/day) (TherapeuticCategory: estrogen): 0.00184

CN1CCN(C2=Nc3ccccc3Sc3ccc(Cl)cc32)CC1
maximum recommended daily dose (mmol/kg-bw/day) (TherapeuticCategory: antipsychotic): 0.000727

CCC(=O)O[C@H]1[C@H](O[C@@H]2[C@@H](C)[C@H](O[C@H]3C[C@@](C)(OC)[C@@H](O)[C@H](C)O3)[C@@H](C)C(=O)O[C@H](CC)[C@@](C)(O)[C@H](O)[C@@H](C)C(=O)[C@H](C)C[C@@]2(C)O)O[C@H](C)C[C@@H]1N(C)C
maximum recommended daily dose (mmol/kg-bw/day) [2]: 0.0844

O=C(O)c1[nH]n(-c2ccc(S(=O)(=O)O)cc2)c(=O)c1N=Nc1ccc(S(=O)(=O)O)cc1
maximum recommended daily dose (mmol/kg-bw/day) (TherapeuticCategory: dye): 0.014

COc1cc2nc(N3CCN(C(=O)C4CCCO4)CC3)nc(N)c2cc1OC (stereo not drawn)
maximum recommended daily dose (mmol/kg-bw/day) [4]: 0.00086

CO[C@@]12[C@H](COC(N)=O)C3=C(C(=O)C(C)=C(N)C3=O)N1C[C@@H]1N[C@@H]12
maximum recommended daily dose (mmol/kg-bw/day) (TherapeuticCategory: antineoplastic): 0.00162

CC(=O)Nc1c(I)c(NC(C)=O)c(I)c(C(=O)O)c1I
maximum recommended daily dose (mmol/kg-bw/day) (TherapeuticCategory: diagnostic aid): 0.761

CC(=O)OCC(=O)[C@@]1(O)CC[C@H]2[C@@H]3CCC4=CC(=O)CC[C@]4(C)[C@H]3C(=O)C[C@@]21C
maximum recommended daily dose (mmol/kg-bw/day) (TherapeuticCategory: glucocorticoid): 0.0124

CCC(=O)O[C@@H]1CC(=O)O[C@H](C)C/C=C/C=C/[C@H](O[C@@H]2CC[C@H](N(C)C)[C@@H](C)O2)[C@H](C)C[C@H](CC=O)[C@H](O[C@@H]2O[C@H](C)[C@@H](O[C@H]3C[C@@](C)(O)[C@@H](O)[C@H](C)O3)[C@H](N(C)C)[C@H]2O)[C@H]1OC
maximum recommended daily dose (mmol/kg-bw/day) [2]: 0.0742

CCC1(C2=CCCCC2)C(=O)NC(=O)NC1=O
maximum recommended daily dose (mmol/kg-bw/day) [5]: 0.0282

BrC(Br)Br
maximum recommended daily dose (mmol/kg-bw/day) (TherapeuticCategory: sedative, hypnotic, antitussive): 0.0989

Clc1ccc2c(c1)C(c1ccccc1)=NCc1nncn1-2
maximum recommended daily dose (mmol/kg-bw/day) [5]: 0.000113

C#CC(O)(/C=C\Cl)CC (stereo not drawn)
maximum recommended daily dose (mmol/kg-bw/day) [5]: 0.115

Cc1ncsc1CCCl
maximum recommended daily dose (mmol/kg-bw/day) (TherapeuticCategory: sedative, hypnotic, anticonvulsant): 0.0396

C1CCC(C(CC2CCCCN2)C2CCCCC2)CC1 (stereo not drawn)
maximum recommended daily dose (mmol/kg-bw/day) (TherapeuticCategory: vasodilator, Ca channel blocker, diuretic): 0.018

CC1(C)S[C@@H]2[C@H](NC(=O)[C@H](C(=O)O)c3ccsc3)C(=O)N2[C@H]1C(=O)O
maximum recommended daily dose (mmol/kg-bw/day) [2]: 0.78

CN[C@@H]1[C@H](O[C@H]2[C@H](O[C@H]3[C@H](O)[C@@H](O)[C@H](N=C(N)N)[C@@H](O)[C@@H]3N=C(N)N)O[C@@H](C)[C@]2(O)C=O)O[C@@H](CO)[C@H](O)[C@H]1O
maximum recommended daily dose (mmol/kg-bw/day) [2]: 0.0344

CO[C@@]1(NC(=O)C2SC(=C(C(N)=O)C(=O)O)S2)C(=O)N2C(C(=O)O)=C(CSc3nnnn3C)CS[C@@H]21 (stereo partly drawn)
maximum recommended daily dose (mmol/kg-bw/day) [2]: 0.116

CCC(C)n1ncn(-c2ccc(N3CCN(c4ccc(OC[C@H]5CO[C@](Cn6cncn6)(c6ccc(Cl)cc6Cl)O5)cc4)CC3)cc2)c1=O (stereo partly drawn)
maximum recommended daily dose (mmol/kg-bw/day) (TherapeuticCategory: antifungal): 0.0142

CC(=O)OCC(=O)[C@@]1(O)CC[C@H]2[C@@H]3CCC4=CC(=O)CC[C@]4(C)[C@@]3(F)[C@@H](O)C[C@@]21C
maximum recommended daily dose (mmol/kg-bw/day) (TherapeuticCategory: mineralcorticoid): 3.95e-06

CC12C=CC(C(=O)O[C@H]3CC[C@H]4[C@@H]5CCC6=CC(=O)CC[C@@H]6[C@H]5CC[C@]34C)(CC1)CC2
maximum recommended daily dose (mmol/kg-bw/day) (TherapeuticCategory: anabolic): 0.00788

CC(O)Cn1cnc2c1c(=O)n(C)c(=O)n2C (stereo not drawn)
maximum recommended daily dose (mmol/kg-bw/day) (TherapeuticCategory: bronchodilator, vasodilator, smooth muscle relaxant): 0.168

CCN1CCN(C(=O)N[C@@H](C(=O)N[C@@H]2C(=O)N3C(C(=O)O)=C(CSc4nnnn4C)CS[C@H]23)c2ccc(O)cc2)C(=O)C1=O
maximum recommended daily dose (mmol/kg-bw/day) [2]: 0.31

NNc1nncc2ccccc12
maximum recommended daily dose (mmol/kg-bw/day) [4]: 0.0208

CC(=O)N[C@@H](CS)C(=O)O
maximum recommended daily dose (mmol/kg-bw/day) (TherapeuticCategory: mucolytic, corneal vulnerary): 0.0613

CCCCC[C@H](O)/C=C/[C@H]1[C@H](O)CC(=O)[C@@H]1CCCCCCC(=O)O
maximum recommended daily dose (mmol/kg-bw/day) (TherapeuticCategory: vasodilator): 2.82e-07

CCN[C@H]1C[C@H](C)S(=O)(=O)c2sc(S(N)(=O)=O)cc21
maximum recommended daily dose (mmol/kg-bw/day) (TherapeuticCategory: antiglaucomal agent, carbonic anhydrase inhibitor): 0.00308

O=C(NCC1CCCCN1)c1cc(OCC(F)(F)F)ccc1OCC(F)(F)F (stereo not drawn)
maximum recommended daily dose (mmol/kg-bw/day) [6]: 0.0121

NCCc1cnc[nH]1
maximum recommended daily dose (mmol/kg-bw/day) (TherapeuticCategory: gastrointestinal): 0.00013

CN1CCc2cccc3c2[C@H]1Cc1ccc(O)c(O)c1-3
maximum recommended daily dose (mmol/kg-bw/day) (TherapeuticCategory: emetic): 0.00625

Cc1cc2c(C(C)C)c(O)c(O)c(C=O)c2c(O)c1-c1c(C)cc2c(C(C)C)c(O)c(O)c(C=O)c2c1O
maximum recommended daily dose (mmol/kg-bw/day) (TherapeuticCategory: none): 0.000642

Nc1ncnc2c1ncn2[C@@H]1O[C@H](CO)[C@@H](O)[C@H]1O
maximum recommended daily dose (mmol/kg-bw/day) [6]: 0.00748

CC(=O)Nc1ccc(/C=N/NC(N)=S)cc1
maximum recommended daily dose (mmol/kg-bw/day) [2]: 0.0106

CC(Oc1c(Cl)cccc1Cl)C1=NCCN1 (stereo not drawn)
maximum recommended daily dose (mmol/kg-bw/day) [4]: 0.000154

CC(C)Nc1cccnc1N1CCN(C(=O)c2cc3cc(NS(C)(=O)=O)ccc3[nH]2)CC1
maximum recommended daily dose (mmol/kg-bw/day) (TherapeuticCategory: antiviral): 0.0146
